In US20030017186A1, “Carboxylic acid fluorides as pesticides” (priority 1999, published 2003):

Assays:
Assay type in all cases: in vivo
[1] = test system: American drywood termites (Cryptotermes brevis); assay: Termite control fumigation test, Cryptotermes brevis; settings: Example 6
From the text: c) American drywood termites (Cryptotermes brevis)=CRYPBR, and Incisitermes tabogae=INCITA
The test organisms, separated by species, were placed into a glass vessel measuring 30 cm×30 cm×60 cm, which was sealed with a glass lid so as to be airtight. The adults and the larvae of the mealworm beetle (Tenebrio molitor) and the broad-horned flour beetle (Gnathocerus cornutus) were placed into small glass vessels approximately 5 cm in diameter, which were closed with a gauze lid and in which they could freely move about. The larvae of the rice weevil had burrowed into seeds of grain. The wood pest larvae were inserted into small blocks of wood measuring 5 cm×2.5 cm×2 cm. The openings were sealed with wads of cotton wool. Only one each of the larvae of the house longhorn beetle (Hylotrupes bajulus) was inserted into a piece of wood, while 6-8 larvae of the common furniture beetle (Anobium punctatum) were inserted into each piece of wood.
The respective gas was then introduced into the fumigation vessel through a gas line from a gas tank that contained the specified amount of gas. After a defined time period, the fumigation vessel was purged with compressed air. The discharged gas was purified by an attached gas scrubber.
The beetles were observed until they died. This point was recorded for each species. The larvae of the wood pests as well as the larvae of the rice weevil (Sitophilus oryzae) had to be picked out of the wood or the grain to check their condition. If any of the animals were still alive, the wooden test blocks remaining in the vessel were fumigated again and were reexamined after the corresponding time span had elapsed. The same number of animals in the untreated control was also checked at each point.
The vitality of the animals was checked at certain time intervals. The beetles could be observed through the fumigation vessel. This was also true for the larvae of the mealworm beetle and the broad-horned flour beetle. The wooden test blocks of the wood pest larvae were opened with hammer and chisel. Tweezers were used to pull the rice weevil larvae out of the grain seeds. The exact time intervals and the number of the evaluated pests were documented in the test results.

[2] = test system: Saw-toothed grain beetle (Oryzaephilus surinamensis); assay: Fumigation test in glass vessel, saw-toothed grain beetles; settings: ORYZSA beetles
[3] = test system: House longhorn beetle (Hylotrupes bajulus) larvae; assay: Fumigation test in glass vessel, house longhorn beetle larvae in wood blocks; settings: HYLOBA larvae in wood blocks
[4] = test system: Mealworm beetle (Tenebrio molitor) larvae; assay: Fumigation test in glass vessel, mealworm beetle larvae; settings: TENEMO larvae
[5] = CRYPBR termites, ACF 50.0/53.8 g/m^3, SF 47.8/44.8 g/m^3 (1st/2nd fumigation), 23.7/24° C.
[6] = Example 4, gas 36.5 g/m^3, 19.3° C., 54% rel. air humidity
[7] = Example 5, ACF 50.6/48.2/51.4 g/m^3, SF 47.4/44.6/41 g/m^3 (1st/2nd/3rd fumigation), 23/23/22° C.
[8] = Example 7, ACF 53.0/54.6/0 g/m^3, second gas (SF) 43.6/41.4/39.8 g/m^3 (1st/2nd/3rd fumigation), 20.0/20.2/19.8 C.

SMILES: CC(=O)F [ACF, acetyl fluoride]
- Number alive, 30 min. after 1st Fumigation [1, 5]: 180
- Number alive, 1 hr. after 1st Fumigation [1, 5]: 60
- Number alive, 3 hrs. after 1st Fumigation [1, 5]: 0
- Number dead, 30 min. after 1st Fumigation [1, 5]: 0
- Number dead, 1 hr. after 1st Fumigation [1, 5]: 0
- Number dead, 3 hrs. after 1st Fumigation [1, 5]: 120
- Effectiveness against Cryptotermes [1]: particularly effective
- Condition of Cryptotermes on reexamination after 24-hour observation period ([1]; animals fumigated 1 hour, then 24-hour observation): dead
- Number alive, 1 hr. after Start of Fumigation [2, 6]: 0
- Number dead, 1 hr. after Start of Fumigation [2, 6]: 25
- Number alive, 30 min. after Start of Fumigation [2, 7]: 0
- Number dead, 30 min. after Start of Fumigation [2, 7]: 15
- Number alive, 30 min. after 1st Fumigation [2, 8]: 0
- Number dead, 30 min. after 1st Fumigation [2, 8]: 15
- Number alive, 1 hr. after Start of Fumigation [3, 7]: 0
- Number alive, 3 hrs. after Start of Fumigation [3, 7]: 1
- Number alive, 6 hrs after Start of Fumigation [3, 7]: 0
- Number dead, 1 hr. after Start of Fumigation [3, 7]: 4
- Number dead, 3 hrs. after Start of Fumigation [3, 7]: 2
- Number dead, 6 hrs after Start of Fumigation [3, 7]: 7
- Number alive, 1 hr. after 1st Fumigation [3, 8]: 2
- Number alive, 3 hrs. after 1st Fumigation [3, 8]: 0
- Number dead, 1 hr. after 1st Fumigation [3, 8]: 3
- Number dead, 3 hrs. after 1st Fumigation [3, 8]: 10
- Number alive, 1 hr. after Start of Fumigation [4, 6]: 5
- Number alive, 2 hrs. after Start of Fumigation [4, 6]: 0
- Number dead, 1 hr. after Start of Fumigation [4, 6]: 5
- Number dead, 2 hrs. after Start of Fumigation [4, 6]: 10
- Number alive, 30 min. after Start of Fumigation [4, 7]: 0
- Number dead, 30 min. after Start of Fumigation [4, 7]: 10
- Number alive, 30 min. after 1st Fumigation [4, 8]: 5
- Number alive, 1 hr. after 1st Fumigation [4, 8]: 0
- Number dead, 30 min. after 1st Fumigation [4, 8]: 5
- Number dead, 1 hr. after 1st Fumigation [4, 8]: 10
